Like-named read-outs stand apart in the source and are kept apart here. Marks after values point to notes of the source that are not given here. Blank lines part the entries; values can stand above or below the molecule they belong to.
Tests used:
[1] = molecular target: T1, hASBT (Homo sapiens, UniProt Q12908); assay: cis-inhibition of taurocholate; details: for fold weaker inhibitory potency (Ki) than corresponding native BA: 3-hydroxyl epimerization (α to β)
T1 sequence (Q12908 1-348): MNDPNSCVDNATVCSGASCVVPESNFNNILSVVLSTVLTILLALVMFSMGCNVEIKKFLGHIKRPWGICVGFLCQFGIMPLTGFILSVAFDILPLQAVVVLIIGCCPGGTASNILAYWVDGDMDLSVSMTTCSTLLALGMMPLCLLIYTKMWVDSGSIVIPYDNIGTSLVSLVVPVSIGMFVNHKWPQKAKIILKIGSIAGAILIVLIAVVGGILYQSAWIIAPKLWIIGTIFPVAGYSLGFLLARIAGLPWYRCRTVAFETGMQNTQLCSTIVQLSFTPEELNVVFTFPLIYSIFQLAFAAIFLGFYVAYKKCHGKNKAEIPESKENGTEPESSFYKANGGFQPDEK

[2] = molecular target: T1, hASBT; details: native glycine conjugates, for comparison; cited from earlier work
[3] = tested on: hASBT-MDCK monolayer; details: passive permeability of native glycine conjugates, for comparison; cited from earlier work
[4] = molecular target: T1, hASBT; details: read-out: Ki (μM ±SEM); glycine conjugates of native bile acids, provided for comparison; cited from earlier work
[5] = molecular target: T1, hASBT; assay: hASBT-mediated active uptake into hASBT-MDCK monolayers; type: cell-based; details: for Kt (μM ±SEM): Michaelis-Menten transport constant, gly-iBA 1–200 μM, 10 min, 37 °C; for Relative Jmax (% TCA Jmax ±SEM): gly-iBAs, normalised to TCA Jmax; for Kt fold higher than Ki: Kt vs Ki; for fold lower Jmax than corresponding native BA: TCA-normalized Jmax
[6] = tested on: hASBT-MDCK monolayer; details: for Pp (cm/s ± SEM x 10^6): passive permeability of gly-iBAs, sodium-free buffer
[7] = maximum substrate flux, mean ± SEM
[8] = read-out: Ki (μM ±SEM), glycine conjugates of iso-bile acids, TCA 2.5 μM, 10 min, 37 °C, pH 6.8, mean (SEM)

Structure (SMILES): C[C@H](CCC(=O)O)[C@H]1CC[C@H]2[C@@H]3CC[C@@H]4C[C@@H](O)CC[C@]4(C)[C@H]3CC[C@]12C [iLCA, 3β-hydroxy-5β-cholanic acid]
Ki [1]: 5.36 µM

Structure (SMILES): C[C@H](CCC(=O)NCC(=O)O)[C@H]1CC[C@H]2[C@@H]3CC[C@@H]4C[C@H](O)CC[C@]4(C)[C@H]3CC[C@]12C [Gly-LCA]
Relative Jmax (% TCA Jmax ±SEM) [2]: 405 (64) % TCA Jmax | Pp (cm/s ± SEM x 10^6) [3]: 0.865 (0.780) cm/s x 10^6 | Ki [4]: 0.427 µM

Ki [1]: 11.4 µM
Structure (SMILES): C[C@H](CCC(=O)O)[C@H]1CC[C@H]2[C@@H]3CC[C@@H]4C[C@@H](O)CC[C@]4(C)[C@H]3C[C@H](O)[C@]12C [iDCA, 3β, 12α-dihydroxy-5β-cholanic acid]

Structure (SMILES): C[C@H](CCC(=O)NCC(=O)O)[C@H]1CC[C@H]2[C@@H]3CC[C@@H]4C[C@@H](O)CC[C@]4(C)[C@H]3C[C@H](O)[C@]12C [gly-iDCA, 3β, 12α-dihydroxy-5β-cholanic acid glycine amide]
Kt (μM ±SEM) [5]: 149 (75) ^ns μM | Relative Jmax (% TCA Jmax ±SEM) [5]: 3.68 (1.14) ^e % TCA Jmax | Absolute Jmax [5, 7]: 0.010 ± 0.003 pmol/cm^2/s | Ki [1, 8]: 12.4 µM | Pp (cm/s ± SEM x 10^6) [6]: 0.730 (0.020) cm/s x 10^6

Structure (SMILES): C[C@H](CCC(=O)NCC(=O)O)[C@H]1CC[C@H]2[C@@H]3[C@@H](O)C[C@@H]4C[C@H](O)CC[C@]4(C)[C@H]3CC[C@]12C [Gly-UDCA]
Relative Jmax (% TCA Jmax ±SEM) [2]: 226 (36) % TCA Jmax | Pp (cm/s ± SEM x 10^6) [3]: 1.01 (0.13) cm/s x 10^6 | Ki [4]: 3.41 µM

Structure (SMILES): C[C@H](CCC(=O)NCC(=O)O)[C@H]1CC[C@H]2[C@@H]3CC[C@@H]4C[C@H](O)CC[C@]4(C)[C@H]3C[C@H](O)[C@]12C [Gly-DCA]
Relative Jmax (% TCA Jmax ±SEM) [2]: 349 (47) % TCA Jmax | Pp (cm/s ± SEM x 10^6) [3]: 0.520 (0.162) cm/s x 10^6 | Ki [4]: 3.22 µM

Structure (SMILES): C[C@H](CCC(=O)NCC(=O)O)[C@H]1CC[C@H]2[C@@H]3[C@H](O)C[C@@H]4C[C@@H](O)CC[C@]4(C)[C@H]3C[C@H](O)[C@]12C [gly-iCA, 3β,7α, 12α-trihydroxy-5β-cholanic acid glycine amide]
Kt fold higher than Ki [5]: about 10 fold | Kt (μM ±SEM) [5]: 163 (37) μM | fold lower Jmax than corresponding native BA [5]: 3 fold | Relative Jmax (% TCA Jmax ±SEM) [5]: 61.2 (9.9) % TCA Jmax | Absolute Jmax [5, 7]: 0.166 ± 0.024 pmol/cm^2/s | Ki [1, 8]: 23.3 µM | Pp (cm/s ± SEM x 10^6) [6]: 0.740 (0.120) cm/s x 10^6

Structure (SMILES): C[C@H](CCC(=O)NCC(=O)O)[C@H]1CC[C@H]2[C@@H]3[C@@H](O)C[C@@H]4C[C@@H](O)CC[C@]4(C)[C@H]3CC[C@]12C [gly-iUDCA, 3β,7β-dihydroxy-5β-cholanic acid glycine amide]
Kt fold higher than Ki [5]: about 10 fold | Kt (μM ±SEM) [5]: 75.3 (22.1) μM | fold lower Jmax than corresponding native BA [5]: 16 fold | Relative Jmax (% TCA Jmax ±SEM) [5]: 14.0 (2.4) % TCA Jmax | Absolute Jmax [5, 7]: 0.038 ± 0.006 pmol/cm^2/s | Ki [1, 8]: 7.66 µM | Pp (cm/s ± SEM x 10^6) [6]: 0.690 (0.090) cm/s x 10^6

Structure (SMILES): C[C@H](CCC(=O)NCC(=O)O)[C@H]1CC[C@H]2[C@@H]3CC[C@@H]4C[C@@H](O)CC[C@]4(C)[C@H]3CC[C@]12C [gly-iLCA, 3β-hydroxy-5β-cholanic acid glycine amide]
Estimate for Kt ([5]; estimate, not determinable due to high passive permeability): 6.82 (4.98) μM | Absolute Jmax [5, 7]: 0.017 ± 0.006 pmol/cm^2/s | fold weaker inhibitory potency (Ki) than corresponding native BA [1]: 12 fold | Ki [1, 8]: 5.07 µM | Pp (cm/s ± SEM x 10^6) [6]: 16.6 (0.8) cm/s x 10^6 | Pp fold that of native counterpart ([6]; vs gly-LCA): 20 fold

Structure (SMILES): C[C@H](CCC(=O)NCC(=O)O)[C@H]1CC[C@H]2[C@@H]3[C@H](O)C[C@@H]4C[C@@H](O)CC[C@]4(C)[C@H]3CC[C@]12C [gly-iCDCA, 3β, 7α-dihydroxy-5β-cholanic acid glycine amide]
Kt fold higher than Ki [5]: about 10 fold | Kt (μM ±SEM) [5]: 59.5 ± 8.8 µM | fold lower Jmax than corresponding native BA [5]: 18 fold | Relative Jmax (% TCA Jmax ±SEM) [5]: 23.9 (2.3) % TCA Jmax | Absolute Jmax [5, 7]: 0.065 ± 0.004 pmol/cm^2/s | fold weaker transport affinity (Kt) than native counterpart ([5]; vs gly-CDCA): 90 fold | Ki [1, 8]: 4.53 µM | Pp (cm/s ± SEM x 10^6) [6]: 0.058 (0.07) cm/s x 10^6

Ki [1]: 11.8 µM | fold weaker inhibitory potency (Ki) than corresponding native BA [1]: 6 fold | fold more potent (Ki) than iUDCA ([1]; 7α-hydroxyl vs 7β-epimer): 2 fold
Structure (SMILES): C[C@H](CCC(=O)O)[C@H]1CC[C@H]2[C@@H]3[C@H](O)C[C@@H]4C[C@@H](O)CC[C@]4(C)[C@H]3CC[C@]12C [iCDCA, 3β, 7α-dihydroxy-5β-cholanic acid]

Structure (SMILES): C[C@H](CCC(=O)NCC(=O)O)[C@H]1CC[C@H]2[C@@H]3[C@H](O)C[C@@H]4C[C@H](O)CC[C@]4(C)[C@H]3C[C@H](O)[C@]12C [Gly-CA]
Relative Jmax (% TCA Jmax ±SEM) [2]: 152 (24) % TCA Jmax | Pp (cm/s ± SEM x 10^6) [3]: 0.220 (0.157) cm/s x 10^6 | Ki [4]: 7.53 µM

Structure (SMILES): C[C@H](CCC(=O)NCCS(=O)(=O)O)[C@H]1CC[C@H]2[C@@H]3[C@H](O)C[C@@H]4C[C@H](O)CC[C@]4(C)[C@H]3C[C@H](O)[C@]12C [TCA, Taurocholic acid, reference compound]
Absolute Jmax [5]: c Absolute Jmax (pmol/cm^2/s) for each gly-iBA were 0.017 ± 0.006 (gly-iLCA), 0.065 ± 0.004 (gly-iCDCA), 0.010 ± 0.003 (gly-iDCA), 0.038 ± 0.006 (gly-iUDCA), and 0.166 ± 0.024 (gly-iCA) respectively. TCA Pp and Jmax were 1.56 x 10^−6 cm/s and 0.271 ± 0.020 pmol/cm^2/s, respectively.

Structure (SMILES): C[C@H](CCC(=O)NCC(=O)O)[C@H]1CC[C@H]2[C@@H]3[C@H](O)C[C@@H]4C[C@H](O)CC[C@]4(C)[C@H]3CC[C@]12C [Gly-CDCA]
Relative Jmax (% TCA Jmax ±SEM) [2]: 432 (58) % TCA Jmax | Pp (cm/s ± SEM x 10^6) [3]: 0.414 (0.201) cm/s x 10^6 | Ki [4]: 0.992 µM

Ki [1]: 24.7 µM
Structure (SMILES): C[C@H](CCC(=O)O)[C@H]1CC[C@H]2[C@@H]3[C@@H](O)C[C@@H]4C[C@@H](O)CC[C@]4(C)[C@H]3CC[C@]12C [iUDCA, 3β, 7β-dihydroxy-5β-cholanic acid]
